Series [1] is described as follows: fluorescence quantum yield with reference to Nile Blue perchlorate in ethanol. Format: physicochemical. The settings on record: in toluene. On the procedure: The fluorescence quantum yield of various photosensitizers formulated in a nano-emulsion and in solvent was measured with reference to Nile Blue perchlorate in ethanol, λexc 605 nm (Fref=0.27).
Series [2] is described as follows: physico-chemical behaviour of taxol under nano-emulsion preparation and analysis conditions. Format: physicochemical. The settings on record: after ultrasound, heat treatment (4 h at 60° C.) and analytical conditions (acetonitrile/water mixture).

On to `C1=Cc2nc1c(-c1ccccc1)c1ccc([nH]1)c(-c1ccccc1)c1nc(c(-c3ccccc3)c3ccc([nH]3)c2-c2ccccc2)CC1` [mTPC, meso-tetraphenylchlorine], for which, in series [1], the “Fluorescence quantum yield F” value is 0.38.
Take `CC(=O)O[C@H]1C(=O)[C@@]2(C)[C@H]([C@H](OC(=O)c3ccccc3)[C@]3(O)C[C@H](OC(=O)[C@H](O)[C@@H](NC(=O)c4ccccc4)c4ccccc4)C(C)=C1C3(C)C)[C@]1(OC(C)=O)CO[C@@H]1C[C@@H]2O` [paclitaxel]: in series [2], the degradation of taxol result was “absence of degradation”.
